Experimental findings from US12091405B2, “Substituted pyrazole compounds as indoleamine 2,3-dioxygenase inhibitors” (Merck Sharp & Dohme LLC, priority 2018, dated 2024) are described below.

The target of this assay is IDO1 (Homo sapiens, UniProt P14902). Briefly: IDO1 Cellular Assay in HeLa Cells Stimulated with IFNγ. The conditions noted are these: IFNγ 100 ng/mL, 300 uM L-tryptophan, about 48 hours, fluorescence readout, read-out: IDO1 HELA Cell Assay, IC50. Format: cell-based. Here is the method:
Biological Assays IDO1 Cellular Assay in HeLa Cells Stimulated with IFNγ
HeLa cells were cultured in complete HeLa culture medium (90% EMEM, 10% heat-inactivated fetal bovine serum) and expanded to about 1×10^9 cells. The cells were then collected and frozen down at 1×10^7 cells/vial in 1 mL frozen medium (90% complete HeLa culture medium, 10% DMSO).
Compounds to be tested were serially diluted in ten 3-fold steps in DMSO starting from 10 mM DMSO stocks in Echo low volume plate(s). Compound dilutions or DMSO alone were then dispensed from the dilution plate(s) into Greiner black 384-well assay plate(s) (catalog #781086, 50 nL/well) using an Echo 550 acoustic liquid handler (Labcyte).
Frozen HeLa cells were thawed and transferred into HeLa assay medium (99% complete HeLa culture medium, 1% Pen/Strep) with 20 mL medium/vial of cells. The cells were spun down at 250 g in a table top centrifuge for 5 min and suspended in same volume of HeLa assay medium. The cells were then counted and adjusted to a density of 2×10^5 cells/mL in HeLa assay medium. Sterile L-tryptophan were added to the cells with final concentration of 300 uM L-tryptophan. A small aliquot (2 mL/plate) of HeLa cells were set aside and were not treated with IFNγ, to serve as the Max-E control.
HeLa cells with and without IFNγ were dispensed to the respective wells of 384-well assay plates containing the compounds. The plates were incubated for about 48 hours at a 37° C., 5% CO2 incubator. Afterwards, 12 μL of 0.5 M methyl isonipecotate in dimethyl sulfoxide were added into each well and the plates were sealed and incubated at 37° C. without CO2 overnight. The plates were centrifuged for 1 min at 200×g. The resulting fluorescence was measured in a Spectramax plate reader (Molecular Devices) with a 400 nm excitation filter and a 510 nm emission filter.
The fluorescence intensity of each well was corrected for the background observed in wells with non-IFNγ-treated cells and was expressed as a fraction of the intensity observed in wells of IFNγ-treated cells and DMSO only. Potencies were calculated by linear least squares fit to the four parameter logistic IC50 equation.
Compounds disclosed herein generally have IC50 of about 0.1 nM to about 20,000 nM, or more specifically, about 1 nM to about 10,000 nM, or more specifically, about 5 nM to about 5,000 nM, or more specifically, about 10 nM to about 1,000 nM, or still more specifically, about 10 nM to about 500 nM.

Chain of IDO1 (P14902 whole entry): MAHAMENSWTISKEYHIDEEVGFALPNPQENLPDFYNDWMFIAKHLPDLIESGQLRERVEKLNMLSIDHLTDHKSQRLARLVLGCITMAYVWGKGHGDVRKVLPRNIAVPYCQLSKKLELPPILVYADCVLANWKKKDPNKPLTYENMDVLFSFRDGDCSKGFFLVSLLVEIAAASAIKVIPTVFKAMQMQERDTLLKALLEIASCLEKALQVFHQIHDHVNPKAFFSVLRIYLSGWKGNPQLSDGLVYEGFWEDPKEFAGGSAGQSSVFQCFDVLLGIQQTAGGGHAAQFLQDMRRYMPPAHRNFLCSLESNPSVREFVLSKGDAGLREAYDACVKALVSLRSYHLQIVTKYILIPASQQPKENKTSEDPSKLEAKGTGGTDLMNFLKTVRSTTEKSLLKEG

Consider `C[C@@H]1CN(C(=O)c2nn(CC(=O)N3CCC(F)(c4ccccc4)CC3)c3c2CCC3)C[C@H](C)O1` [Example 63, 2-[3-[(2R,6S)-2,6-dimethylmorpholine-4-carbonyl]-5,6-dihydro-4H-cyclopenta[c]pyrazol-1-yl]-1-(4-fluoro-4-phenyl-1-piperidyl)ethanone], for which the IC50 (commonly the concentration needed to halve the response being measured) was 296 nM.
Under `C[C@@H]1CN(C(=O)c2nn(CC(=O)N3CCC(C)(c4ccccc4)CC3)c3c2CCC3)C[C@H](C)O1` [Example 66, 2-{3-[(2R,6S)-2,6-dimethylmorpholine-4-carbonyl]-5,6-dihydrocyclopenta[c]pyrazol-1(4H)-yl}-1-(4-methyl-4-phenylpiperidin-1-yl)ethan-1-one] stands 43.5 nM.
Regarding `C[C@@H]1CN(C(=O)c2nn(CC(=O)N3CCC(c4cc(F)cc(F)c4)CC3)c3c2CCC3)C[C@H](C)O1` [Example 67, 1-[4-(3,5-difluorophenyl)piperidin-1-yl]-2-{3-[(2R,6S)-2,6-dimethylmorpholine-4-carbonyl]-5,6-dihydrocyclopenta[c]pyrazol-1(4H)-yl}ethan-1-one], the IC50 stood at 52.4 nM.
Under `C[C@@H]1CN(C(=O)c2nn(CC(=O)N3CCC(c4ccc(F)cc4)CC3)c3c2CCC3)C[C@H](C)O1` [Example 68, 2-{3-[(2R,6S)-2,6-dimethylmorpholine-4-carbonyl]-5,6-dihydrocyclopenta[c]pyrazol-1(4H)-yl}-1-[4-(4-fluorophenyl)piperidin-1-yl]ethan-1-one] stands 71.2 nM.
Turning to `C[C@@H]1CN(C(=O)c2nn(CC(=O)N3CCC(c4cccc5ccccc45)CC3)c3c2CCC3)C[C@H](C)O1` [Example 69, 2-{3-[(2R,6S)-2,6-dimethylmorpholine-4-carbonyl]-5,6-dihydrocyclopenta[c]pyrazol-1(4H)-yl}-1-[4-(naphthalen-1-yl)piperidin-1-yl]ethan-1-one], the IC50 was 6.4 nM.
To `C[C@@H]1CN(C(=O)c2nn(CC(=O)N3CCC(c4ccccc4)CC3)c3c2CCC3)C[C@H](C)O1` [Example 70, 2-{3-[(2R,6S)-2,6-dimethylmorpholine-4-carbonyl]-5,6-dihydrocyclopenta[c]pyrazol-1(4H)-yl}-1-(4-phenylpiperidin-1-yl)ethan-1-one] belongs 79.4 nM; to `C[C@@H]1CN(C(=O)c2nn(CC(=O)N3CCC(c4ccccc4C(F)(F)F)CC3)c3c2CCC3)C[C@H](C)O1` [Example 71, 2-{3-[(2R,6S)-2,6-dimethylmorpholine-4-carbonyl]-5,6-dihydrocyclopenta[c]pyrazol-1(4H)-yl}-1-{4-[2-(trifluoromethyl)phenyl]piperidin-1-yl}ethan-1-one], 107 nM; to `C[C@@H]1CN(C(=O)c2nn(CC(=O)N3CCC(c4ccccc4)C(F)(F)C3)c3c2CCC3)C[C@H](C)O1` (stereo partly drawn) [Example 72, 1-(3,3-difluoro-4-phenylpiperidin-1-yl)-2-{3-[(2R,6S)-2,6-dimethylmorpholine-4-carbonyl]-5,6-dihydrocyclopenta[c]pyrazol-1(4H)-yl}ethan-1-one], 144 nM.
To `C[C@@H]1CN(C(=O)c2nn(CC(=O)N3CCC(c4ccccc4C(F)(F)F)C3)c3c2CCC3)C[C@H](C)O1` (stereo partly drawn) [Example 73, 2-{3-[(2R,6S)-2,6-dimethylmorpholine-4-carbonyl]-5,6-dihydrocyclopenta[c]pyrazol-1(4H)-yl}-1-{3-[2-(trifluoromethyl)phenyl]pyrrolidin-1-yl}ethan-1-one] belongs 152 nM; to `C[C@@H]1CN(C(=O)c2nn(CC(=O)N3CCCC(c4ccccc4)CC3)c3c2CCC3)C[C@H](C)O1` (stereo partly drawn) [Example 74, 2-{3-[(2R,6S)-2,6-dimethylmorpholine-4-carbonyl]-5,6-dihydrocyclopenta[c]pyrazol-1(4H)-yl}-1-(4-phenylazepan-1-yl)ethan-1-one], 170 nM.
Consider `COc1ccccc1C1CCN(C(=O)Cn2nc(C(=O)N3C[C@@H](C)O[C@@H](C)C3)c3c2CCC3)CC1` [Example 75, 2-{3-[(2R,6S)-2,6-dimethylmorpholine-4-carbonyl]-5,6-dihydrocyclopenta[c]pyrazol-1(4H)-yl}-1-[4-(2-methoxyphenyl)piperidin-1-yl]ethan-1-one], for which the IC50 stood at 195 nM.
Under `C[C@@H]1CN(C(=O)c2nn(CC(=O)N3CCC(c4ccc5ccccc5c4)CC3)c3c2CCC3)C[C@H](C)O1` [Example 76, 2-{3-[(2R,6S)-2,6-dimethylmorpholine-4-carbonyl]-5,6-dihydrocyclopenta[c]pyrazol-1(4H)-yl}-1-[4-(naphthalen-2-yl)piperidin-1-yl]ethan-1-one] stands 199 nM; under `Cc1c(F)cccc1C1CCCN(C(=O)Cn2nc(C(=O)N3C[C@@H](C)O[C@@H](C)C3)c3c2CCC3)C1` (stereo partly drawn) [Example 77, 2-{3-[(2R,6S)-2,6-dimethylmorpholine-4-carbonyl]-5,6-dihydrocyclopenta[c]pyrazol-1(4H)-yl}-1-[3-(3-fluoro-2-methylphenyl)piperidin-1-yl] ethan-1-one], 233 nM; under `C[C@@H]1CN(C(=O)c2nn(CC(=O)N3CCC(c4ccccc4Cl)C3)c3c2CCC3)C[C@H](C)O1` (stereo partly drawn) [Example 78, 1-[3-(2-chlorophenyl)pyrrolidin-1-yl]-2-{3-[(2R,6S)-2,6-dimethylmorpholine-4-carbonyl]-5,6-dihydrocyclopenta[c]pyrazol-1(4H)-yl}ethan-1-one], 346 nM.
Take `C[C@@H]1CN(C(=O)c2nn(CC(=O)N3CC[C@@H](c4ccccc4)[C@@H](C)C3)c3c2CCC3)C[C@H](C)O1` [Example 79, 2-{3-[(2R,6S)-2,6-dimethylmorpholine-4-carbonyl]-5,6-dihydrocyclopenta[c]pyrazol-1(4H)-yl}-1-[(3R,4R)-3-methyl-4-phenylpiperidin-1-yl]ethan-1-one]: the IC50 stood at 354 nM.
Under `Cc1ccnc(C2CCN(C(=O)Cn3nc(C(=O)N4C[C@@H](C)O[C@@H](C)C4)c4c3CCC4)CC2)c1C` [Example 80, 2-(3-(cis-2,6-dimethylmorpholine-4-carbonyl)-5,6-dihydrocyclopenta[c]pyrazol-1(4H)-yl)-1-(4-(3,4-dimethylpyridin-2-yl)piperidin-1-yl)ethan-1-one] stands 74.2 nM; under `C[C@@H]1CN(C(=O)c2nn(CC(=O)N3CCC(c4cccc5ccsc45)CC3)c3c2CCC3)C[C@H](C)O1` [Example 84, 1-[4-(benzothiophen-7-yl)-1-piperidyl]-2-[3-[(2S,6R)-2,6-dimethylmorpholine-4-carbonyl]-5,6-dihydro-4H-cyclopenta[c]pyrazol-2-ium-1-yl]ethanone;2,2,2-trifluoroacetate], 4.7 nM.
Take `C[C@@H]1CN(C(=O)c2nn(CC(=O)N3CCC(c4cccc5c(F)cccc45)CC3)c3c2CCC3)C[C@H](C)O1` [Example 85, 2-{3-[(2R,6S)-2,6-dimethylmorpholine-4-carbonyl]-5,6-dihydrocyclopenta[c]pyrazol-1(4H)-yl}-1-[4-(5-fluoronaphthalen-1-yl)piperidin-1-yl]ethan-1-one]: the IC50 is 5.3 nM.
For `C[C@@H]1CN(C(=O)c2nn(CC(=O)N3CCC(c4cccc5c4CCC5)CC3)c3c2CCC3)C[C@H](C)O1` [Example 86, 1-[4-(2,3-dihydro-1H-inden-4-yl)piperidin-1-yl]-2-{3-[(2R,6S)-2,6-dimethylmorpholine-4-carbonyl]-5,6-dihydrocyclopenta[c]pyrazol-1(4H)-yl}ethan-1-one], the IC50 was found to be 7.3 nM.
To `C[C@@H]1CN(C(=O)c2nn(CC(=O)N3CCC(c4cccc(Cl)c4Cl)CC3)c3c2CCC3)C[C@H](C)O1` [Example 87, 1-[4-(2,3-dichlorophenyl)piperidin-1-yl]-2-{3-[(2R,6S)-2,6-dimethylmorpholine-4-carbonyl]-5,6-dihydrocyclopenta[c]pyrazol-1(4H)-yl}ethan-1-one] belongs 7.8 nM; to `C[C@@H]1CN(C(=O)c2nn(CC(=O)N3CCC(c4cccc5sccc45)CC3)c3c2CCC3)C[C@H](C)O1` [Example 88, 1-[4-(1-benzothiophen-4-yl)piperidin-1-yl]-2-{3-[(2R,6S)-2,6-dimethylmorpholine-4-carbonyl]-5,6-dihydrocyclopenta[c]pyrazol-1(4H)-yl}ethan-1-one], 8.3 nM; to `Cc1ccc(C2CCN(C(=O)Cn3nc(C(=O)N4C[C@@H](C)O[C@@H](C)C4)c4c3CCC4)CC2)cc1C` [Example 89, 2-{3-[(2R,6S)-2,6-dimethylmorpholine-4-carbonyl]-5,6-dihydrocyclopenta[c]pyrazol-1(4H)-yl}-1-[4-(3,4-dimethylphenyl)piperidin-1-yl]ethan-1-one], 8.8 nM.
